# According to US20250108139A1, “PEPTIDE UREA DERIVATIVE, PHARMACEUTICAL COMPOSITION CONTAINING PEPTIDE UREA DERIVATIVE, AND APPLICATION OF PEPTIDE UREA DERIVATIVE” (BIVISION PHARMACEUTICALS, INC, priority 2022, published 2025):
# Tests used:
# [1] = target: PSMA protein (Homo sapiens (Human), UniProt Q04609); experiment: Affinity of DB compounds to PSMA protein using Biacore (Effect Example 3); conditions: Biacore 8K, 15° C., 1:1 binding model; pKD=−Log KD
# Description: The affinity of DB compounds to PSMA protein was tested using the Biacore 8K (Cytiva) instrument to detect ligand binding to PSMA protein (Sino Biological). PSMA protein was captured on an SA chip. Before fixing the ligand (flow paths 1 and 2, flow rate of 10 μL/min), PSMA protein (10 μg/mL, flow rate of 5 μL/min, injection time of 600 s) was fixed on flow path 2 using a flow buffer. The sensor surface was adjusted by continuously injecting 1 M NaCl three times in 50 mM NaOH. After each ligand injection, additional cleaning was performed using isopropanol in 1 M NaCl and 50 mM NaOH (flow paths 1 and 2, flow rate of 10 μL/min, injection time of 60 s).
# All compounds were dissolved in 100% DMSO and diluted to 10 mM, then further diluted to the appropriate highest concentration in the analysis buffer (PBS, PH 7.4, 1 mM TCEP ([…]), 0.05% P20, 2% DMSO). The analysis was conducted under the following conditions: 15° C. analysis temperature; analysis steps=all set to LMW kinetics; cycle type=single cycle (90 s contact time, 1800 s dissociation time, 30 μL/min flow rate, flow paths 1 and 2); detection in flow=path 2-1. Data evaluation was performed using Biacore Insight Evaluation Software, fitting the data to a 1:1 binding model.
# Biacore results are shown in Table 5: pKD=−Log KD, wherein KD is the binding affinity of the compound to PSMA protein measured by Biacore. It is expressed by Kd (M)=Kd (1/s)/Ka (1/Ms). A indicates pKD>8; B indicates 7<pKD<8; C indicates 6<pKD<7; D indicates pKD<6.
# [2] = tested on: PSMA-positive 22rv1 tumor-bearing mouse; experiment: 177Lu labeling and animal biodistribution experiment, gamma counter; type: in vivo; conditions: 177Lu-labeled compound, 24 h after tail vein injection, n = 2
# Description: Distribution in PSMA-positive tumor-bearing mouse tissues: Tumor-bearing animals (purchased from Shanghai Alamo Pharmaceutical Technology Co., Ltd.) were subcutaneously inoculated with 3×10^6 22rv1 cells (in 50% Matrigel, Corning) into the right shoulder region of 6-9 week old (Balb/c Nude) mouse. Once the tumors had grown to an appropriate size, ^177Lu-radiolabeled DB compounds were injected into the mouse via the tail vein (approximately 1.85 MBq-3.7 MBq/mouse, specific activity: 22423.82 Kbq/μg). After administration, the animals were euthanized using carbon dioxide inhalation at 24 hours. The blood and organs (blood, liver, kidney, muscle, tumor) were collected.
# Blood was collected through the abdominal aorta and 100 μL was immediately quantified into designated centrifuge tubes (weighed). After collection, the organs were washed twice with deionized water, dried, placed in pre-weighed tubes, and weighed again to calculate the sample weight. Samples were measured on the day of collection. All blood and tissue samples were measured for radioactivity using a gamma counter. The results are shown in FIGS. 3, 4, 5, 6, 7, and Table 6.
# [3] = tested on: 22rv1 tumor-bearing Balb/c Nude mouse; experiment: Treatment efficacy in 22RV1 tumor-bearing mouse model; type: in vivo; conditions: for T/C: 21st day; for Tumor volume, 21st day of group administration: mean ± standard error
# Description: Balb/c Nude mouse, approximately 6-8 weeks old, were subcutaneously inoculated with 3×10^6 22rv1 cells (in 50% Matrigel, Corning) into the right scapular region. Once the tumors reached the required size for the experiment, the animals were randomly assigned into 11 experimental groups based on tumor volume, with 5 mouse per group. The body weight and tumor size of the animals were measured. On the day of grouping, treatments were administered as follows: control group (normal saline), group 1 (^177Lu-DB-13, 0.15 mCi/mouse), group 2 (^177Lu-DB-13, 0.45 mCi/mouse), group 3 (^177Lu-DB-13, 0.05 mCi/mouse), group 4 (^177Lu-B-11, 0.05 mCi/mouse), group 5 (^177Lu-DB-11, 0.15 mCi/mouse), group 6 (^177Lu-DB-11, 0.45 mCi/mouse), group 7 (^177Lu-PSMA-617, 0.15 mCi/mouse), group 8 (^177Lu-PSMA-617, 0.45 mCi/mouse), group 9 (^177Lu-DB-19, 0.05 mCi/mouse), group 10 (^177Lu-DB-19, 0.15 mCi/mouse), group 11 (^177Lu-DB-19, 0.45 mCi/mouse). After the start of treatment, general health and appearance were observed daily. Body weight and tumor size were measured at each sampling time point. Any abnormal observations during the study were recorded in the raw data.
# [4] = target: PSMA-expressing cells (22Rv1) (Homo sapiens (Human), UniProt Q04609); experiment: Competitive binding against radiolabeled PSMA-617 ligand on 22Rv1 cells; conditions: unlabeled compound vs radiolabeled PSMA-617 ligand, on ice 2 hours
# Description: (1) 22Rv1 cells in the logarithmic growth phase were prepared into a cell suspension, and the cell density was adjusted to 1×10^4 cells/mL. 1 mL of the cell suspension was seeded into each well of a 24-well cell culture plate. The cells were cultured overnight in a 37° C. incubator.
# (2) The cell culture medium was aspirated, and the cells were washed once with PBS. Then, 975 μL of additive-free medium was added.
# (3) To each well, 25 μL of a fixed concentration of radiolabeled PSMA-617 ligand (final concentration in the medium: 2 μCi/mL) and different concentrations (final concentrations in the medium: 1000 ng/ml, 100 ng/mL, 10 ng/mL, 1 ng/mL, 0.1 ng/mL, 0.01 ng/mL, 0.001 ng/mL, 0 ng/ml) of the unlabeled test blocking compounds DB-18, DB-19, DB-13, E-3 were added.
# (4) The cells were incubated on ice for 2 hours.
# (5) The cells were washed three times with ice-cold PBS.
# (6) The cells were lysed with 0.5 mL of 1 M sodium hydroxide, and washed twice with 0.5 mL PBS. The sodium hydroxide (0.5 mL) and PBS (0.5 mL×2) solutions were collected for uptake counting.
# [5] = Determination of Log P (n-octanol/water partition); type: physicochemical; conditions: 177Lu-labeled compound, mean of three tubes
# Description: Three EP tubes were prepared, each containing 0.1 mL of saturated n-octanol and 80 μL of ultrapure water. Then, 20 μL (approximately 1 MBq) of the ^177Lu-labeled DB-13, DB-18, and DB-19 compound solutions were added to the respective tubes. After shaking evenly, the tubes were centrifuged at room temperature (2000 r/min, 5 minutes, centrifugation radius of 10 cm). From each tube, 100 μL was taken from both the lipid layer and the aqueous layer, and the radioactivity counts per minute for both phases were measured. The Log P values were calculated, and their mean values were taken as the final result.
# [6] = tested on: albumin in rat plasma; experiment: Plasma protein binding (PPB) test by ultrafiltration; type: in vitro ADME; conditions: 177Lu-labeled compound
# Description: The labeled compounds ^177Lu-E-3, 177Lu-DB-13, 177Lu-DB-18, and ^177Lu-DB-19 (1 μCi) were prepared in a reaction solution by adding 50 μL of PBS to achieve a concentration of 20 μCi/mL. 50 μL of the 20 μCi/mL reaction solution was added to 200 μL of plasma, repeated for 3 tubes. The mixture was mixed well and incubated at room temperature for 10 minutes, then added to ultrafiltration tubes and centrifuged at 13000 rpm for 45 minutes. Following this, 50 μL of normal saline was added and the samples were centrifuged again for 15 minutes. The upper chamber and the filtrate were respectively counted for radioactivity.
# PPB=[(upper chamber counts−background counts]/(filtrate counts+upper chamber counts−2*background counts)]*100%.
# [7] = target: hPSMA-biotin (Homo sapiens (Human), UniProt Q04609); experiment: Binding kinetics and affinity with PSMA protein by Biacore 8K (Effect Example 1); conditions: for Kd / kd / kon: 1:1 binding model; for kon: read-out: ka
# Description: The dissociation constant was determined using the Biacore 8K (GE Healthcare) following the manufacturer's instructions. In brief, PSMA-bio protein, diluted in PBS pH 7.4 with 1 mM TCEP, 0.05% Tween 20, and 2% DMSO buffer, was immobilized on the flow cell of an SA sensor chip. Using PBS pH 7.4, 1 mM TCEP, 0.05% Tween 20, and 2% DMSO as the running buffer, five serial dilutions of the PSMA-targeting candidate molecules were injected into the flow cell at a rate of 30 μL/min, with a binding time of 90 seconds. The buffer flow was maintained for 1800 seconds to allow dissociation. The KD values for the interaction between the candidate small molecules and the PSMA protein were evaluated using Biacore 8K evaluation software 1.0 and a 1:1 binding model.
# Chain of hPSMA-biotin (Q04609 whole entry): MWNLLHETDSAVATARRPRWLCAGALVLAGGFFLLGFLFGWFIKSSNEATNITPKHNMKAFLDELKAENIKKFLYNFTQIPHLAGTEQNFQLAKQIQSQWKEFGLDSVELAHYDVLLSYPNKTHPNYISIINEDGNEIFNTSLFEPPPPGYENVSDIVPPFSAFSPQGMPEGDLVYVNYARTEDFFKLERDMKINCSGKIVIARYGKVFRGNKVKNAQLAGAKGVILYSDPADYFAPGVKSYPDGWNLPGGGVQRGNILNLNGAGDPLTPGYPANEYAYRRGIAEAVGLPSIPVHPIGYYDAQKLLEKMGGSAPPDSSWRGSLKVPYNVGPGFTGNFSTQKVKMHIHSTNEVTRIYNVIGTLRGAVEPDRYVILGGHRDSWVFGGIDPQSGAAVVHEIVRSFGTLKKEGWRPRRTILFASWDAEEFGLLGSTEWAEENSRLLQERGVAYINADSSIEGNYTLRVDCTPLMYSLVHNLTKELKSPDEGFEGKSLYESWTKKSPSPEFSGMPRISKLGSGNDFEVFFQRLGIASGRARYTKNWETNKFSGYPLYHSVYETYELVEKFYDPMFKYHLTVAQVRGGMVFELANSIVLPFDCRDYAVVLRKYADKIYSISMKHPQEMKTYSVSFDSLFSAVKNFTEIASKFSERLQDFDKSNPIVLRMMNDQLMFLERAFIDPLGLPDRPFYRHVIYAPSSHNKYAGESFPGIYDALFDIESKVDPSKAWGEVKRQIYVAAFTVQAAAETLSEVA
# Chain of PSMA-expressing cells (22Rv1) (Q04609 whole entry): as above
# Chain of PSMA protein (Q04609 whole entry): as above
smiles,measurement,setting,value
O=C(O)CC[C@H](NC(=O)N[C@@H](CCCCNC(=O)[C@H](Cc1ccc2ccccc2c1)NC(=O)c1ccc2c(c1)CCN(C(=O)CCC(=O)NCCCC[C@H](NC(=O)CCC(=O)N1CCc3cc(C(=O)N[C@@H](Cc4ccc5ccccc5c4)C(=O)NCCCC[C@H](NC(=O)N[C@@H](CCC(=O)O)C(=O)O)C(=O)O)ccc3C1)C(=O)NCCNC(=O)CN1CCN(CC(=O)O)CCN(CC(=O)O)CCN(CC(=O)O)CC1)C2)C(=O)O)C(=O)O [DB-11],Kd,[1],< 10 nM
same,Blood uptake,[2],1.125 % ID/g
same,Kidney uptake,[2],87.105 % ID/g
same,Liver uptake,[2],1.625 % ID/g
same,Muscle uptake,[2],0.055 % ID/g
same,Tumor uptake,[2],41.83 % ID/g
same,tumor growth inhibition,"[3]; high dose 0.45 mCi, effect decreased over time, remained higher than PSMA-617",a certain degree of tumor growth inhibition
O=C(O)CC[C@H](NC(=O)NC(CCCCNC(=O)[C@H](Cc1ccc2ccccc2c1)NC(=O)c1ccc2c(c1)CCN(C(=O)c1cc(NC(=O)CN3CCN(CC(=O)O)CCN(CC(=O)O)CCN(CC(=O)O)CC3)cc(C(=O)N3CCc4cc(C(=O)N[C@@H](Cc5ccc6ccccc6c5)C(=O)NCCCC[C@H](NC(=O)N[C@@H](CCC(=O)O)C(=O)O)C(=O)O)ccc4C3)c1)C2)C(=O)O)C(=O)O (stereo partly drawn) [DB-18],Kd,[1],< 10 nM
same,IC50,[4],2.58 nM
same,logP,[5],-1.86
same,plasma protein binding ratio (albumin binding ratio),[6],70.51%
O=C(O)CC[C@H](NC(=O)NC(CCCCNC(=O)[C@H](Cc1ccc2ccccc2c1)NC(=O)c1ccc2c(c1)CCN(C(=O)CNC(=O)c1cc(NC(=O)CNC(=O)CN3CCN(CC(=O)O)CCN(CC(=O)O)CCN(CC(=O)O)CC3)cc(C(=O)NCC(=O)N3CCc4cc(C(=O)N[C@@H](Cc5ccc6ccccc6c5)C(=O)NCCCC[C@H](NC(=O)N[C@@H](CCC(=O)O)C(=O)O)C(=O)O)ccc4C3)c1)C2)C(=O)O)C(=O)O (stereo partly drawn) [DB-19],Kd,[1],< 10 nM
same,Blood uptake,[2],1.715 % ID/g
same,Kidney uptake,[2],177.885 % ID/g
same,Liver uptake,[2],2.725 % ID/g
same,Muscle uptake,[2],0.73 % ID/g
same,IC50,[4],0.93 nM
same,logP,[5],-1.79
same,plasma protein binding ratio (albumin binding ratio),[6],59.07%
same,tumor growth inhibition compared with PSMA-617,"[3]; two doses, 0.15 mCi and 0.45 mCi",superior tumor growth inhibition
"O=C(O)CC[C@H](NC(=O)N[C@@H](CCCCNC(=O)[C@H](Cc1ccc2ccccc2c1)NC(=O)c1ccc2c(c1)CCN(C(=O)CN1CCN(CC(=O)O)CCN(CC(=O)O)CCN(CC(=O)O)CC1)C2)C(=O)O)C(=O)O [Compound E-3, reference compound]",Kd,[1],< 10 nM
same,Blood uptake,[2],0.02 % ID/g
same,Kidney uptake,[2],2.01 % ID/g
same,Liver uptake,[2],0.09 % ID/g
same,Muscle uptake,[2],0.035 % ID/g
same,Tumor uptake,[2],32.875 % ID/g
same,IC50,[4],2.06 nM
same,logP,[5],-3.46
same,plasma protein binding ratio (albumin binding ratio),[6],86.61%
"O=C(O)CC[C@H](NC(=O)N[C@@H](CCCCNC(=O)[C@H](Cc1ccc2ccccc2c1)NC(=O)[C@H]1CC[C@H](CNC(=O)CN2CCN(CC(=O)O)CCN(CC(=O)O)CCN(CC(=O)O)CC2)CC1)C(=O)O)C(=O)O [PSMA-617, reference compound]",Kd,[7],0.483 nM
same,kd,[7],4.88e-05 s⁻¹
same,kon,[7],101000 M⁻¹ s⁻¹
same,Kd,[1],< 10 nM
O=C([O-])CN1CCN(CC(=O)[O-])CCN(CC(=O)NCC2CCC(C(=O)N[C@@H](Cc3ccc4ccccc4c3)C(=O)NCCCC[C@H](NC(=O)N[C@@H](CCC(=O)O)C(=O)O)C(=O)O)CC2)CCN(CC(=O)[O-])CC1.[177Lu+3] (stereo partly drawn) [177Lu-PSMA-617],T/C,[3]; 0.15 mCi/mouse,97.41%
same,"Tumor volume, 21st day of group administration",[3]; 0.15 mCi/mouse,"2,616.99 ± 203.91 mm^3"
same,T/C,[3]; 0.45 mCi/mouse,101.47%
same,"Tumor volume, 21st day of group administration",[3]; 0.45 mCi/mouse,"2,726.19 ± 926.52 mm^3"
O=C(O)CC[C@H](NC(=O)N[C@@H](CCCCNC(=O)[C@H](Cc1ccc2ccccc2c1)NC(=O)[C@H]1CC[C@H](CNC(=O)c2cc(NC(=O)CN3CCN(CC(=O)O)CCN(CC(=O)O)CCN(CC(=O)O)CC3)cc(C(=O)NC[C@H]3CC[C@H](C(=O)N[C@@H](Cc4ccc5ccccc5c4)C(=O)NCCCC[C@H](NC(=O)N[C@@H](CCC(=O)O)C(=O)O)C(=O)O)CC3)c2)CC1)C(=O)O)C(=O)O [DB-01],binding affinity compared with PSMA-617,[7],slightly higher than that of PSMA-617
same,Kd,[7],0.12 nM
same,kd,[7],2.65e-05 s⁻¹
same,kon,[7],222000 M⁻¹ s⁻¹
same,Kd,[1],< 10 nM
